Measurements as given in PubChem BioAssay (NCI).
Several values for one entry are separate records, joined by “and”; a condition that tells them apart may be missing. Identical values can stand only once.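 Where inhibition never reached the appropriate level, the endpoint shown equals the highest concentration tested. Otherwise, values were interpolated linearly from a five-concentration, 48-hour dose response in 96-well plates. The concentration for 50% growth inhibition is given as GI50. Definition used: TGI = concentration required for complete inhibition of growth.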 Where a SMILES comes first, the peptide text is derived from it. [ ]: non-standard residue; d: D form. Ac5c = NC1(C(=O)O)CCCC1

Columns and labels:
Assay in all cases: inhibition of tumour cell growth, NCI panel, 48 h
HS 578T breast = tested on: HS 578T breast
CAKI-1 renal = tested on: CAKI-1 renal
OVCAR-4 ovarian = tested on: OVCAR-4 ovarian
UACC-62 melanoma = tested on: UACC-62 melanoma
DU-145 prostate = tested on: DU-145 prostate
CCRF-CEM leukemia = tested on: CCRF-CEM leukemia
K-562 leukemia = tested on: K-562 leukemia
HCT-116 colon = tested on: HCT-116 colon
SF-539 CNS = tested on: SF-539 CNS
U251 CNS = tested on: U251 CNS

Compound	GI50 (HS 578T breast)	TGI (HS 578T breast)	GI50 (CAKI-1 renal)	TGI (CAKI-1 renal)	GI50 (OVCAR-4 ovarian)	TGI (OVCAR-4 ovarian)	GI50 (UACC-62 melanoma)	TGI (UACC-62 melanoma)	GI50 (DU-145 prostate)	TGI (DU-145 prostate)	GI50 (CCRF-CEM leukemia)	TGI (CCRF-CEM leukemia)	GI50 (K-562 leukemia)	TGI (K-562 leukemia)	GI50 (HCT-116 colon)	TGI (HCT-116 colon)	GI50 (SF-539 CNS)	TGI (SF-539 CNS)	GI50 (U251 CNS)	TGI (U251 CNS)
COc1cc(/C=C/C(=O)CC(=O)/C=C/c2cc(OC)c(OC)c(OC)c2)cc(OC)c1OC	3 µM	9.51 µM	3.27 µM	16.5 µM	3.27 µM	19.7 µM	3.17 µM	13.4 µM	6.71 µM	31.9 µM	2.58 µM	> 100 µM	2.82 µM	> 100 µM	1.71 µM	4.26 µM	4.85 µM	71.8 µM	–	–
CO[C@@H]1/C=C\C=C(/C)C(=O)NC2=CC(=O)C(NCCN(C)C)=C(C[C@@H](C)C[C@@H](OC)[C@@H](O)[C@H](C)/C=C(\C)[C@H]1OC(N)=O)C2=O	–	38.3 µM and 76.3 µM	0.485 µM and 1.38 µM	12.2 µM and 29.2 µM	–	4.76 µM and 4.52 µM	–	1.25 µM and 3.87 µM	< 0.01 µM	5.13 µM and 12.4 µM	0.0344 µM	3.23 µM and 9.76 µM	0.0158 µM	3.22 µM and 13.6 µM	0.0192 µM	1.52 µM and 2.3 µM	< 0.01 µM and 0.0319 µM	11.6 µM and 3.38 µM	0.0144 µM	8.18 µM
COc1ccc(CN(C)c2ccc(CO)c(Cl)c2)cc1	38.4 µM	> 100 µM	3 µM	> 64.1 µM	1.93 µM	> 45.9 µM	0.274 µM	2.24 µM	34.2 µM	> 100 µM	32.9 µM	> 100 µM	7.59 µM	> 100 µM	0.368 µM	14.2 µM	47.7 µM	> 100 µM	4.05 µM	> 87.3 µM
O=C1Nc2ccc(C(=O)c3ccco3)cc2/C1=C/c1cc(Cl)c(O)c(Cl)c1	4.94 µM	> 21.7 µM	1.72 µM	> 20.9 µM	6.95 µM	> 25 µM	2.63 µM	7.91 µM	4.75 µM	> 18.4 µM	1.76 µM	> 25 µM	9.05 µM	> 25 µM	1.87 µM	> 25 µM	3.93 µM	9.49 µM	3.95 µM	> 25 µM
O=c1ccn(C2OC(CO)C(O)C2F)c(=O)[nH]1 (stereo not given)	> 1000 µM	> 1000 µM	> 88.9 µM	> 100 µM	26 µM	840 µM and > 100 µM	> 1000 µM	> 1000 µM	> 1000 µM	> 1000 µM	–	> 1000 µM	> 1000 µM	> 1000 µM	> 1000 µM	> 1000 µM	> 1000 µM	> 1000 µM	> 1000 µM	> 1000 µM
CC(=O)[O-].CC(=O)[O-].[Pt+2].c1cscn1.c1cscn1	> 100 µM	> 100 µM	> 100 µM	> 100 µM	74.3 µM	> 100 µM	> 100 µM	> 100 µM	22.9 µM	> 100 µM	54 µM	> 100 µM	42.7 µM	> 100 µM	53.9 µM	> 100 µM	48.3 µM	> 100 µM	54.5 µM	> 100 µM
Cn1c([N+](=O)[O-])cnc1/C=C1\Oc2ccccc2C1=O	1.15 µM	–	0.24 µM	0.601 µM	2.05 µM	7.45 µM	0.522 µM	2.22 µM	0.307 µM	1.15 µM	0.168 µM	1.38 µM	0.487 µM	7.02 µM	0.187 µM	1.06 µM	1.78 µM	4.74 µM	1.19 µM	4.05 µM
COc1cc(OC)cc(C2CC(=O)Nc3c2c(C)nn3-c2nc3ccccc3[nH]2)c1 (stereo not given)	3.06 µM	39.9 µM	3.36 µM	11 µM	4.64 µM	> 100 µM	1.94 µM	4.01 µM	3.73 µM	17.1 µM	0.792 µM	> 100 µM	3.15 µM	> 100 µM	1.97 µM	4.16 µM	2.96 µM	9.43 µM	2.99 µM	9.57 µM
O=[N+]([O-])c1cc(Cl)c(Cl)c([N+](=O)[O-])c1Cl	2.35 µM	7.47 µM	0.184 µM	0.36 µM	1.69 µM	3.06 µM	1.94 µM	4.35 µM	1.63 µM	2.99 µM	0.236 µM	> 100 µM	0.353 µM	> 100 µM	0.624 µM	2.12 µM	2.53 µM	6.94 µM	1.03 µM	2.61 µM
CCN(CC)CCCC(C)Nc1c2ccc(Cl)cc2nc2ccc(OC)cc12 (stereo not given)	2.46 µM	8.27 µM and 14.8 µM	1.99 µM	4.37 µM and 4.5 µM	–	5.05 µM and 3.74 µM	–	3.29 µM and 3.4 µM	2.28 µM	6.37 µM	1.48 µM	7.62 µM and 5.45 µM	–	4.16 µM	1.38 µM	5.79 µM and 4.31 µM	1.86 µM	3.39 µM and 3.3 µM	1.89 µM	4.1 µM and 3.39 µM
CN[C@@H](C)C(=O)N[C@H](C(=O)N1CCC[C@H]1C(=O)N[C@H]1c2ccccc2C[C@H]1OCC#CC#CCO[C@@H]1Cc2ccccc2[C@@H]1NC(=O)[C@@H]1CCCN1C(=O)[C@@H](NC(=O)[C@H](C)NC)C1CCCCC1)C1CCCCC1	4.62 µM	12.1 µM	> 68.2 µM	> 100 µM	< 0.01 µM	10.9 µM	4.57 µM	9.97 µM	5.35 µM	16.5 µM	1.1 µM	4.27 µM	2 µM	4.66 µM	3.68 µM	14.1 µM	< 0.01 µM	1.28 µM	1.94 µM	4.79 µM
COc1ccc([N+](=O)[O-])c2c(NCCCN(C)C)c3ccccc3nc12	–	4.29 µM	–	5.7 µM	–	0.206 µM	–	0.285 µM	–	1.79 µM	–	> 100 µM	–	3.76 µM	–	0.978 µM	–	1.49 µM	–	2.05 µM
CCN1CCN(C(=O)[C@]23CC[C@@H](C)[C@H](C)[C@@H]2C2=CC[C@@H]4[C@@]5(C)C/C(=C/c6ccncc6)C(=O)C(C)(C)[C@@H]5CC[C@@]4(C)[C@]2(C)CC3)CC1	1.81 µM	4.3 µM	1.32 µM	2.8 µM	1.65 µM	3.18 µM	1.53 µM	2.87 µM	1.87 µM	3.43 µM	2.42 µM	6.28 µM	2.47 µM	7.25 µM	–	–	1.73 µM	3.11 µM	1.72 µM	3.38 µM
NC1(C(=O)NC2(C(=O)O)CCCC2)CCCC1 (H-[Ac5c]-[Ac5c]-OH)	–	> 100 µM	–	> 100 µM	–	> 100 µM	–	> 100 µM	–	> 100 µM	–	> 100 µM	–	> 100 µM	–	> 100 µM	–	> 100 µM	–	> 100 µM
COC(=O)CCc1cc(OC)c2c(c1)C(C(=O)OC)C(c1ccc(OC)c(OC)c1)O2 (stereo not given)	> 100 µM and 43.4 µM	> 100 µM	> 100 µM and 45.5 µM	> 100 µM	–	> 100 µM	> 100 µM and 16.7 µM	> 100 µM	> 100 µM	> 100 µM	–	> 100 µM	–	> 100 µM	–	> 100 µM	> 100 µM and 11.1 µM	> 100 µM and 47.3 µM	> 100 µM and 13.3 µM	> 100 µM
O=c1c2c(nc3n1CCS3)[nH]c1ccccc12	73.6 µM	> 100 µM	76.8 µM	> 100 µM	> 100 µM	> 100 µM	62.4 µM	> 100 µM	> 100 µM	> 100 µM	> 100 µM	> 100 µM	> 100 µM	> 100 µM	> 100 µM	> 100 µM	> 100 µM	> 100 µM	> 100 µM	> 100 µM
CSc1nc(C)c2c(n1)SCC2	–	> 10 µM	–	> 10 µM	–	> 10 µM	–	> 10 µM	–	> 10 µM	–	> 10 µM	–	> 10 µM	–	> 10 µM	–	> 10 µM	–	> 10 µM
CCC1(CC)C(=O)OC(=O)C1(CC)CC	–	> 100 µM	–	> 100 µM	–	> 100 µM	–	> 100 µM	–	> 100 µM	–	> 100 µM	–	> 100 µM	–	> 100 µM	–	> 100 µM	–	> 100 µM
CC1=C2[C@@H](CC1)[C@]1(C)O[C@@](C3CCCCC3)(C[C@H]1OC(=O)CO)[C@H]2OC(=O)/C=C/c1ccccc1	0.0202 µM	0.281 µM	5.92 µM	22 µM	8.37 µM	23.7 µM	9.82 µM	25.8 µM	9.68 µM	23.4 µM	7.45 µM	24.1 µM	7.14 µM	32.1 µM	7.12 µM	21.1 µM	12.8 µM	27.7 µM	7.72 µM	20.5 µM
O=C(O[C@H]1CN[C@H](C#Cc2cc3ncnc(Nc4ccc5c(ccn5Cc5cc(F)ccc5F)c4)c3s2)C1)N1CCOCC1	0.488 µM	> 25 µM	0.187 µM	> 21.7 µM	4.51 µM	16.5 µM	4.1 µM	9.3 µM	2.17 µM	5.52 µM	5.59 µM	24.9 µM	6.49 µM	> 25 µM	3.19 µM	7.44 µM	3.42 µM	7.83 µM	3.61 µM	8.25 µM
O=c1c(Oc2ccc(F)cc2F)cc2cnc(NC3CCOCC3)nc2n1C1CCS(=O)(=O)CC1	> 25 µM	> 25 µM	> 25 µM	> 25 µM	> 25 µM	> 25 µM	> 25 µM	> 25 µM	> 25 µM	> 25 µM	> 25 µM	> 25 µM	> 25 µM	> 25 µM	> 25 µM	> 25 µM	> 25 µM	> 25 µM	> 25 µM	> 25 µM
CC(C)(C#N)c1cc(Cn2cncn2)cc(C(C)(C)C#N)c1	289 µM	> 10000 µM	> 10000 µM	> 10000 µM	> 10000 µM	> 10000 µM	768 µM	> 10000 µM	> 10000 µM	> 10000 µM	393 µM	2480 µM	–	–	–	–	2450 µM	> 10000 µM	> 10000 µM	> 10000 µM
NOCC(=O)O	71.1 µM	> 100 µM	> 100 µM	> 100 µM	> 100 µM	> 100 µM	34.4 µM	> 100 µM	> 100 µM	> 100 µM	94 µM	> 100 µM	> 100 µM	> 100 µM	66.8 µM	> 100 µM	> 100 µM	> 100 µM	> 100 µM	> 100 µM
CC(=O)c1c(C)[nH]c(-c2nc3ccc(N4CCN(C)CC4)cc3[nH]2)c1-c1ccc(OCC2CCOCC2)cc1	0.346 µM	8.71 µM	0.326 µM	12.6 µM	0.803 µM	32.9 µM	0.172 µM	11.2 µM	5.09 µM	24.8 µM	0.654 µM	> 47.1 µM	0.37 µM	9.08 µM	0.714 µM	12.7 µM	1.24 µM	12.3 µM	2.1 µM	17.5 µM
C=CCC(N[C@H](CO)c1ccccc1)c1ccc2ccccc2n1 (stereo not given in full)	22.5 µM	> 100 µM	> 100 µM	> 100 µM	> 100 µM	> 100 µM	> 100 µM	> 100 µM	> 100 µM	> 100 µM	> 100 µM	> 100 µM	> 100 µM	> 100 µM	> 100 µM	> 100 µM	> 100 µM	> 100 µM	> 100 µM	> 100 µM
CC12OC(c3ccccc3)=CC(c3ccc(Cl)cc3)=C1C(c1ccccc1)=CC2=O (stereo not given)	> 100 µM	> 100 µM	> 100 µM	> 100 µM	19 µM	> 100 µM	49.4 µM	> 100 µM	> 100 µM	> 100 µM	56.2 µM	> 100 µM	28.9 µM	> 100 µM	46.1 µM	> 100 µM	> 100 µM	> 100 µM	33.1 µM	> 100 µM
